Reference: PMC4226674, “A phase I trial of the HIV protease inhibitor nelfinavir in adults with solid tumors” (Oncotarget, 2014)
Read-outs that look alike come from different tables or passages of the source.

Assays:
liposarcoma = conditions: cited from earlier work
[1] = system: P-AKT S473, P-EIF2 alpha S51, ATF3, CHOP in PBMCs; experiment: Surrogate biomarkers in PBMCs by immunoblotting; type: in vivo, human
Procedure: (§1) Blood was collected in Vacutainer CPT collection tubes with sodium heparin (BD Biosciences cat# 362753) and mononuclear cells were isolated as per the manufacturer's instructions. PBMCs were washed with PBS and lysed in 2X LSB buffer, aliquotted and stored at -80°C. For analysis, equal amounts of protein per sample were run on 10-12% SDS-PAGE gels, then transferred onto nitrocellulose membranes. Membranes were blocked in 5% milk in TBS + 0.1% tween (TBST) and incubated with primary antibody diluted in 5% BSA in TBST at 4 degrees overnight. The next day membranes were washed, incubated with HRP-linked secondary antibody and developed using ECL chemiluminescent reagent (GE Healthcare) and X-ray film as per the manufacturers instructions. […] Antibodies to CHOP sc-7351 and ATF3 sc-188 were from Santa Cruz Biotechnology (Santa Cruz, CA).

[2] = Procedure: This single institution, open-label, Phase Ia dose escalation study was performed to establish the MTD and DLT of nelfinavir in subjects with advanced refractory solid tumors. The study used a modified Fibonacci scheme, in which cohorts of three to six subjects were entered at each dose level until two patients developed DLT. If two or more subjects encountered DLT, then the MTD was exceeded. The MTD was defined as the dose level at which less than 2 of 6 subjects experienced DLT. Each cycle lasted 21 days. Up to 6 additional patients were allowed to be enrolled at the MTD in order to better establish potential rates of toxicity.
Physical examinations, toxicity assessments and laboratory analyses were conducted weekly during cycle 1 and then every three weeks beginning cycle 2.
The starting dose of nelfinavir was the FDA-approved dose in HIV patients of 1250 mg twice daily, which comprised dose level (DL) 1. Dose escalation proceeded in 625 mg, twice-daily increments (DL2: 1875 mg, DL3: 2500 mg, DL4: 3125 mg, DL5: 3750 mg, DL6: 4375 mg).
Toxicity was graded according to the National Cancer Institute Common Toxicity Criteria, version 3.0.

P-AKT S473 = experiment: Akt activation in PBMCs by immunoblotting; type: in vivo, human
Procedure: as §1

[3] = Nelfinavir plasma pharmacokinetics (HPLC-MS, noncompartmental); type: in vivo, human
Procedure: To determine CYP3A4 phenotype, a single 3 mg oral dose of midazolam hydrochloride, a CYP3A4 substrate, was administered at day -2 (2 days prior to commencing nelfinavir) and again at steady state (cycle 1 day 20). Serial venous blood samples were collected at 15, 30, 60, 120, 180, 240, and 300 minutes following administration of midazolam. Nelfinavir pharmacokinetics (PK) were obtained after single dose administration, cycle 1 day 1, and again at steady state, cycle 2 day 1. Serial venous blood samples were collected pre-dose and at 1, 2, 3, 4, 5, 6 and 12 hours after administration. Plasma concentrations of midazolam and nelfinavir were determined with a validated assay employing high performance liquid chromatography (HPLC) with mass spectrometric detection. Noncompartmental pharmacokinetic analyses were performed with WinNonlin 5.2 (Pharsight). Individual concentration-time profiles were constructed for each patient, course and drug resulting in four profiles per patient (two each for midazolam and nelfinavir). The maximum plasma concentration (Cmax) and the time of maximum plasma concentration (Tmax) were the observed values. Drug exposure was estimated using the area under the concentration-time curve (AUC). The area under the concentration-time curve (AUC) from time zero to the time of the final quantifiable sample (AUClast) was calculated using the linear trapezoidal method. The area under the concentration-time curve from time zero to infinity (AUCinf) was calculated by extrapolation, using the terminal rate constant from the last measurable concentration.

[4] = Cycle 2 Day 1 steady state, 3125 mg bid, mean, n=6

Cc1c(O)cccc1C(=O)N[C@@H](CSc1ccccc1)[C@H](O)CN1C[C@H]2CCCC[C@H]2C[C@H]1C(=O)NC(C)(C)C [nelfinavir, Nelfinavir]
MTD in liposarcoma patients (liposarcoma; Phase I trial): MTD was not reached
dose above which PK non-linearity was found (liposarcoma; liposarcoma patients): above 3000 mg bid
dose at which auto-induction was noted (highest dose evaluated) (liposarcoma; liposarcoma patients): 4125 mg BID
biomarker changes in PBMCs from baseline ([1]; DL1 or DL2 (1250, 1875 mg bid)): no biomarker changes
subjects with decrease in P-AKT S473 or increase in EIF2 alpha S51 phosphorylation ([1]; DL3 (2500 mg bid)): 1 out of 3
subjects showing changes in 3 of 4 biomarkers evaluated ([1]; DL4 (3125 mg bid)): 3
effect on markers of ER stress in peripheral blood mononuclear cells ([1]; in vivo): induced markers of ER stress
MTD relative to FDA-approved dose for HIV (fold/times) ([2]; 3125 mg bid vs doses typically used in HIV patients): 2.5
onset of nelfinavir-induced neutropenia ([2]; human, in vivo): ≤ 3 days
recovery of neutropenia after discontinuation of drug ([2]; human, in vivo): ≤ 3 days
ALT increase, treatment-related AE in cycle 1 ([2]; human, in vivo, 21 days): 5 (20.8) N (%)
Abdominal pain, treatment-related AE in cycle 1 ([2]; human, in vivo, 21 days): 1 (4.2) N (%)
Anemia, treatment-related AE in cycle 1 ([2]; human, in vivo, 21 days): 10 (41.7) N (%)
Anorexia, treatment-related AE in cycle 1 ([2]; human, in vivo, 21 days): 1 (4.2) N (%)
Belching, treatment-related AE in cycle 1 ([2]; human, in vivo, 21 days): 1 (4.2) N (%)
Bloating/, treatment-related AE in cycle 1 ([2]; human, in vivo, 21 days): 3 (12.5) N (%)
Cholesterol increase, treatment-related AE in cycle 1 ([2]; human, in vivo, 21 days): 3 (12.5) N (%)
Dehydration, treatment-related AE in cycle 1 ([2]; human, in vivo, 21 days): 2 (8.3) N (%)
Depression, treatment-related AE in cycle 1 ([2]; human, in vivo, 21 days): 1 (4.2) N (%)
Diarrhea, treatment-related AE in cycle 1 ([2]; human, in vivo, 21 days): 12 (50.0) N (%)
Fatigue, treatment-related AE in cycle 1 ([2]; human, in vivo, 21 days): 5 (20.8) N (%)
Flatulence, treatment-related AE in cycle 1 ([2]; human, in vivo, 21 days): 1 (4.2) N (%)
Heartburn, treatment-related AE in cycle 1 ([2]; human, in vivo, 21 days): 1 (4.2) N (%)
Hyperglycemia, treatment-related AE in cycle 1 ([2]; human, in vivo, 21 days): 4 (16.7) N (%)
Hyperkalemia, treatment-related AE in cycle 1 ([2]; human, in vivo, 21 days): 3 (12.5) N (%)
Hypoalbuminemia, treatment-related AE in cycle 1 ([2]; human, in vivo, 21 days): 5 (20.8) N (%)
Hypokalemia, treatment-related AE in cycle 1 ([2]; human, in vivo, 21 days): 1 (4.2) N (%)
Hyponatremia, treatment-related AE in cycle 1 ([2]; human, in vivo, 21 days): 2 (8.3) N (%)
Hypophosphatemia, treatment-related AE in cycle 1 ([2]; human, in vivo, 21 days): 1 (4.2) N (%)
Hypothyroid, treatment-related AE in cycle 1 ([2]; human, in vivo, 21 days): 1 (4.2) N (%)
Insomnia, treatment-related AE in cycle 1 ([2]; human, in vivo, 21 days): 1 (4.2) N (%)
Leukopenia, treatment-related AE in cycle 1 ([2]; human, in vivo, 21 days): 4 (16.7) N (%)
Lymphopenia, treatment-related AE in cycle 1 ([2]; human, in vivo, 21 days): 10 (41.7) N (%)
Nausea, treatment-related AE in cycle 1 ([2]; human, in vivo, 21 days): 2 (8.3) N (%)
Neutropenia, treatment-related AE in cycle 1 ([2]; human, in vivo, 21 days): 5 (20.8) N (%)
Palpitations, treatment-related AE in cycle 1 ([2]; human, in vivo, 21 days): 1 (4.2) N (%)
Thrombocytopenia, treatment-related AE in cycle 1 ([2]; human, in vivo, 21 days): 2 (8.3) N (%)
anemia, treatment-related AE in cycle 1 ([2]; human, in vivo, 21 days): 41.7%
diarrhea, treatment-related AE in cycle 1 ([2]; human, in vivo, 21 days): 50%
fatigue, treatment-related AE in cycle 1 ([2]; human, in vivo, 21 days): 20.8%
hypoalbuminemia, treatment-related AE in cycle 1 ([2]; human, in vivo, 21 days): 20.8%
lymphopenia, treatment-related AE in cycle 1 ([2]; human, in vivo, 21 days): 41.7%
dose limiting toxicity (DLT) ([2]; human, in vivo, po): grade 4 neutropenia
cumulative toxicities ([2]; in vivo): No cumulative toxicities were observed
maximum tolerated dose (MTD) ([2]; oral, twice daily, 21-day cycles, advanced solid tumors): 3125 mg
subject PBMCs showing a decrease in P-AKT S473 (P-AKT S473; DL4 (3125 mg bid), after 7 or 42 days): 45%
effect on AKT in peripheral blood mononuclear cells (P-AKT S473; in vivo): inhibited AKT
CL_F ([3]; Cycle 1 Day 1, first oral dose 3125 mg, mean, n=10): 49,020 mL/h
CL_F [3, 4]: 59,826 mL/h
Evening Trough [3, 4]: 2883 ng/mL
Morning Trough [3, 4]: 4597 ng/mL
doses above which PK showed potential non-linearity ([3]; human, in vivo): 1875 to 2500 mg
AUC(0-inf) ([3]; human, in vivo, po, 1250 mg): 24.5 µg·h/mL
AUC(0-t) ([3]; human, in vivo, po, 1250 mg): 16600 ng·h/mL
CL_F ([3]; human, in vivo, po, 1250 mg): 52,714 mL/h
Cmax ([3]; human, in vivo, po, 1250 mg): 2390 ng/mL
Tmax ([3]; human, in vivo, po, 1250 mg): 3.7 h
half-life ([3]; human, in vivo, po, 1250 mg): 396 min
AUC(0-inf) ([3]; human, in vivo, po, 1875 mg): 189 µg·h/mL
AUC(0-t) ([3]; human, in vivo, po, 1875 mg): 73900 ng·h/mL
CL_F ([3]; human, in vivo, po, 1875 mg): 21,034 mL/h
Cmax ([3]; human, in vivo, po, 1875 mg): 10400 ng/mL
Tmax ([3]; human, in vivo, po, 1875 mg): 3.8 h
half-life ([3]; human, in vivo, po, 1875 mg): 714 min
AUC(0-inf) ([3]; human, in vivo, po, 2500 mg): 79.4 µg·h/mL
AUC(0-t) ([3]; human, in vivo, po, 2500 mg): 61000 ng·h/mL
CL_F ([3]; human, in vivo, po, 2500 mg): 55,342 mL/h
Tmax ([3]; human, in vivo, po, 2500 mg): 6 h
half-life ([3]; human, in vivo, po, 2500 mg): 270 min
AUC(0-inf) ([3]; human, in vivo, po, 3750 mg): 131 µg·h/mL
AUC(0-t) ([3]; human, in vivo, po, 3750 mg): 61500 ng·h/mL
CL_F ([3]; human, in vivo, po, 3750 mg): 52,114 mL/h
Cmax ([3]; human, in vivo, po, 3750 mg): 7920 ng/mL
Tmax ([3]; human, in vivo, po, 3750 mg): 2.7 h
half-life ([3]; human, in vivo, po, 3750 mg): 552 min
Cmax ([3]; human, in vivo, Cycle 1 Day 1, first oral dose 2500 mg, mean, n=3, read-out: Cmax): 9740 ng/mL
AUC(0-inf) ([3]; human, in vivo, Cycle 1 Day 1, first oral dose 3125 mg, mean, n=10, read-out: AUCinf): 140 µg·h/mL
half-life ([3]; human, in vivo, Cycle 1 Day 1, first oral dose 3125 mg, mean, n=10, read-out: T1/2 (converted)): 552 min
AUC(0-t) ([3]; human, in vivo, Cycle 1 Day 1, first oral dose 3125 mg, mean, n=13, read-out: AUClast): 56900 ng·h/mL
Cmax ([3]; human, in vivo, Cycle 1 Day 1, first oral dose 3125 mg, mean, n=13, read-out: Cmax): 7640 ng/mL
Tmax ([3]; human, in vivo, Cycle 1 Day 1, first oral dose 3125 mg, mean, n=13, read-out: Tmax): 4.8 h
Cmax ([3]; human, in vivo, Cycle 2 Day 1 steady state, 3125 mg bid, mean, n=7, read-out: Cmax): 9550 ng/mL
Tmax ([3]; human, in vivo, Cycle 2 Day 1 steady state, 3125 mg bid, mean, n=7, read-out: Tmax): 3.3 h
AUC(0-t) ([3]; human, in vivo, Cycle 2 Day 1 steady state, 3125 mg bid, mean, read-out: AUClast): 60000 ng·h/mL
change of overall exposure or maximal plasma concentration with dose ([3]; in vivo): No increase
dose linearity of first dose pharmacokinetics ([3]; in vivo, po): Non-linear pharmacokinetics
